Values after ≈ are worked out from the molar mass of the structure shown. Like-named read-outs stand apart in the source and are kept apart here.
How the values were obtained:
M. tuberculosis H37Rv [1] = experiment: MBC assay with H37Rv; type: cell-based; conditions: Mycobacterium tuberculosis, 504 h; performed with H37Rv; concentration that inhibits ≥ 99.9% of the initial bacterial inoculum; 3 weeks on 7H10 agar at 37°C
Protocol: The MBC assay with H37Rv was performed as an adjunct to the MIC assay and was used to determine the concentration of drug that is lethal to the target bacterium in vitro. A small aliquot (i.e., 10 µl) was removed from appropriate dilutions in the 96-well plate used to determine the MIC value with subsequent streaking on 7H10 agar plates. Five wells were selected, representing the well yielding the MIC value and 2 wells above and below the well that yielded the MIC value. After 3 weeks of incubation at 37°C, the agar plates were inspected for the presence or absence of growth. The MBC value is the concentration in µg/ml that inhibits ≥ 99.9% of the initial bacterial inoculum. Antimicrobials are usually regarded as bactericidal if the MBC is no more than four times the MIC. while the bacteriostatic agents have MIC values that are much lower than the MBC.

[2] = Precipitation noted during the MIC assay; type: physicochemical; conditions: observed in the MIC assay plates, 7H9 medium
Protocol: Stock solutions were prepared at 3.2 mg/ml which were then diluted as indicated below: 1. 20 µl of the 3.2 mg/ml stock of the test compound were added to a 96-well microtiter plate. 2. 2-fold dilutions were made by the addition of 20 µl of diluent.
3. Each dilution was further diluted 1:10 in sterile water (10 µl of dilution to 90 µl of sterile water). Note: The additional 10-fold dilution in water is required when DMSO is used as solvent to minimize toxicity to the bacteria. For uniformity in the assay procedure, this dilution step was used even if water or other solvents were used.
The following steps are followed in preparing the 96-wcll plates: • 1. 6.25 µl of each dilution were transferred to duplicate 96-well test plates. • 2. 93.75 µl of the cell suspension (∼ 10^4 bacteria) in 7H9 medium were added to the test plates. • 3. Positive, negative, sterility and resazurin controls were tested: • a. Positive controls include: appropriate antibiotics for each resistant strain and rifampicin and isoniazid for 113 7Rv • b. Negative controls include: • i. cell culture with solvent and water • i.i. cell culture only • c. Sterility controls include: • i. medium only • ii. medium with solvent and water • d. […] This control plate is needed to verify whether the compound reacts with resazurin that could possibly elicit fluorescence. • 4. […]

M. tuberculosis H37Rv [3] = experiment: Resazurin MIC assay, pan-sensitive strain; type: cell-based; conditions: Mycobacterium tuberculosis, 48 h
[4] = Table 3, standard test strain H37Rv, read-out: MIC Value (µg/ml) H37Rv*
[5] = H37RV, Table 2, Resazurin MIC assay, […], read-out: MIC H37Rv

Row | Structure (SMILES) | MBC (M. tuberculosis H37Rv [1]) [µg/mL] | Comments (precipitation) [2] | MIC (M. tuberculosis H37Rv [3]; [4]) [µg/mL] | MIC (M. tuberculosis H37Rv [3]; [5]) [µg/mL]
1 | O=C(NN=C1C(=O)N(Cc2ccccc2)c2ccccc21)c1ccc([N+](=O)[O-])o1 [Compound 3g] | 0.156 (≈ 0.4 µM) | Precipitation observed at 10 µg/ml | 0.156 (≈ 0.4 µM) | 0.156 (≈ 0.4 µM)
2 | O=C1Nc2ccc(F)cc2C1=NNC(=O)c1ccc([N+](=O)[O-])o1 [Compound 3d] |  |  |  | 5 (≈ 15.7 µM)
3 | O=C1Nc2ccc(Cl)cc2C1=NNC(=O)c1ccncc1 [Compound 3a] | 1.25 (≈ 4.16 µM) | Precipitation observed at 10 µg/ml | 1.25 (≈ 4.16 µM) | 1.25 (≈ 4.16 µM)
4 | O=C(NN=C1C(=O)N(c2ccccc2)c2ccccc21)c1ccc([N+](=O)[O-])o1 [Compound 3f] |  |  |  | 5 (≈ 13.3 µM)
5 | O=C(NN=C1C(=O)N(Cc2ccccc2)c2ccc(F)cc21)c1ccc([N+](=O)[O-])o1 [Compound 3i] |  |  |  | 0.156 (≈ 0.382 µM)
6 | NNC(=O)c1ccncc1 [Isoniazid, reference compound] |  |  | 0.063 (≈ 0.459 µM) | 0.063 (≈ 0.459 µM)
7 | O=C(NN=C1C(=O)N(Cc2ccccc2)c2ccc(Cl)cc21)c1ccc([N+](=O)[O-])o1 [Compound 3h] |  |  |  | 0.312 (≈ 0.734 µM)
8 | O=C1Nc2ccc([N+](=O)[O-])cc2C1=NNC(=O)c1ccncc1 [Compound 3c] | 0.31 (≈ 0.996 µM) |  | 0.156 (≈ 0.501 µM) | 0.156 (≈ 0.501 µM)
9 | CO[C@H]1/C=C/O[C@@]2(C)Oc3c(C)c(O)c4c(O)c(c(/C=N/N5CCN(C)CC5)c(O)c4c3C2=O)NC(=O)/C(C)=C\C=C\[C@H](C)[C@H](O)[C@@H](C)[C@@H](O)[C@@H](C)[C@H](OC(C)=O)[C@@H]1C [Rifampin, reference compound] |  |  | 0.0125 (≈ 0.0152 µM) | 0.0031 (≈ 0.00377 µM)
10 | O=C1Nc2ccc(F)cc2C1=NNC(=O)c1ccncc1 [Compound 3b, reference compound] |  |  |  | 10 (≈ 35.2 µM)
11 | Cc1ccc2c(c1)C(=NNC(=O)c1ccc([N+](=O)[O-])o1)C(=O)N2Cc1ccccc1 [Compound 3j] |  |  |  | 1.25 (≈ 3.09 µM)
12 | O=C1Nc2ccc(OC(F)(F)F)cc2C1=NNC(=O)c1ccc([N+](=O)[O-])o1 [Compound 3e] | 2.5 (≈ 6.51 µM) |  | 2.5 (≈ 6.51 µM) | 2.5 (≈ 6.51 µM)

From patent EP2604600A1, “Isatin derivatives and their use in therapy” (priority 2011, dated 2013)
